Where “and” joins values, the source holds several entries; their conditions need not be identical. Equal values may be shown once.
Key:
human Sec24a = biological target: T1, human Sec24a (Homo sapiens, UniProt O95486); assay: Fluorescence polarization assay: displacement of 5-Fam-[…] from Sec24a; assay type: binding; conditions: fluorescence polarization at 22° C.; value ± standard error; read-out: IC50, displacement of fluorescent probe 5-Fam-QIYTDIEANR from Sec24a
T1 construct: His6 (TEV-cleavable) (N, cleaved yes); made in house; host or cells: High Five insect cells (baculovirus)
T1 sequence (O95486 341-1093): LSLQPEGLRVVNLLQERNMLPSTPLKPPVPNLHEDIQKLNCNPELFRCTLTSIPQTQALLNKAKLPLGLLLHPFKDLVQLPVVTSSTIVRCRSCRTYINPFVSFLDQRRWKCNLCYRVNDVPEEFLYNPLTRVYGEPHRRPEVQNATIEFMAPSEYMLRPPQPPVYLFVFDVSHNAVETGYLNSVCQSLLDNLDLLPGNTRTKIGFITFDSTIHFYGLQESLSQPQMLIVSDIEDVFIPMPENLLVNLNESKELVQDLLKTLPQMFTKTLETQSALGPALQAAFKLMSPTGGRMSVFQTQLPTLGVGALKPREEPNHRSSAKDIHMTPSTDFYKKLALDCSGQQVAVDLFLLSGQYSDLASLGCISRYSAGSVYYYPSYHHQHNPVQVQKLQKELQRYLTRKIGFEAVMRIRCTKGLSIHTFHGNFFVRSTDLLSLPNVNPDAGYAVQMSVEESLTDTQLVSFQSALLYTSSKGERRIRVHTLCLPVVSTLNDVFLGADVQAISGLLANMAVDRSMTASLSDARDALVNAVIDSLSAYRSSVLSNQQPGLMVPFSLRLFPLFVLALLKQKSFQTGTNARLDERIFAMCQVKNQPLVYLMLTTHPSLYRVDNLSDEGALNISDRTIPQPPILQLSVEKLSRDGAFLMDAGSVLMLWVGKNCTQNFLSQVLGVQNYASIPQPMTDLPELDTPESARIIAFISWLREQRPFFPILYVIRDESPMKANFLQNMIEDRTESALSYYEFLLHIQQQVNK

[1] = system: G544V-mutant LDL receptor; assay: Cell-based trafficking assay: restoration of glycosylation/trafficking of mutant LDL receptor in CHO cells; parameters: species or system human; conditions: for EC50: CHO cells expressing G544V-mutant LDL receptor, 2 hours at 37° C., value ± standard error, read-out: EC50, acquisition of mutant LDL receptor glycosylation
Method: (§1) T-Rex-CHO-K1 cloned cell lines expressing wild-type and mutant LDL receptor were cultured as described in Sorensen et al. (2006) and Tveten et al. (2007), and according to the manufacturer's protocols (Thermo Fisher Scientific). The expression in CHO cells of G544V-mutant or wildtype LDL receptor protein was induced with 1 μg/mL tetracycline for 24 h prior to experiments with 4-PBA or 4-PBA analogs (Tveten et al. (2007)). To compare pharmacological potency of 4-PBA analogs, cells were incubated with the compounds for 2 hours at 37° C. in 12-well 22 mm plates (Corning Costar #3513). For experiments concerning the extracellular secretion of GRP94 (FIG. 5), the incubations with 4-PBA were extended to 24 hours. Cells were broken in lysis buffer (1% (v/v) Triton X-100, 150 mM NaCl, 10 mM EDTA, 50 mM Tris-HCl pH 7.5) and cleared by centrifugation (15,000 g for 15 minutes). Cellular protein concentration was measured using “Protein Assay Kit II” (Bio-Rad) with bovine serum albumin as standard. Lysates were added to Laemmli sample buffer (New England BioLabs) containing 130 mM dithiothreitol and heated for 15 min at 55° C. Cell medium (containing secreted proteins) was added to Laemmli sample buffer containing 5% β-mercaptoethanol and boiled for 5 min. Samples were run on 4-15% Tris/HCl Criterion gels (Bio-Rad) followed by immunoblotting.
Chemiluminescence signals from western blots for the glycosylated (160 kDa) form of G544V mutant LDL receptor were quantified as a percentage of total LDL receptor protein (glycosylated+unglycosylated bands). Data at high concentrations of 4-PBA analogs, which show inhibition of LDL receptor trafficking, were omitted. Data from individual experiments were normalized (to obtain maximal response=100%), so that data from replicate experiments (n=4-5) could be averaged. Logistic fitting to the dose-response data was carried out with program Ultrafit (Elsevier Biosoft). […] Data from fluorescence polarization titrations (FIGS. 6(E)-6(G)) were analyzed with Ultrafit, and IC50 values were determined from plots using nonlinear curve fitting. […] IC50 values were converted to true affinities, Ki, using the approach of (Nikolovska-Coleska et al., 2004), and these are used in the scatter plot, FIG. 6(H).
A system comprising a CHO (T-Rex-CHO-K1) cell clone expressing the G544V-mutant human LDL receptor under a tetracycline-inducible promoter was used (see General Methods) to measure the packaging of resident proteins and a misfolded mutant LDL receptor into COPII vesicles budded from permeabilized cells. The G544V-mutant human LDL receptor is a naturally occurring transport-defective (class 2) mutant LDL receptor with a point mutation in the luminal β-propeller domain that causes ER trapping with chaperone association. 4-PBA has been show to restore transportation of G544V-mutant human LDL receptor to the plasma membrane (Tveten et al. (2007)).
CHO cells expressing G544V-mutant LDL receptor were incubated with the indicated concentrations of 4-PBA analogs for 2 hours at 37° C. Cell lysates were analyzed by immunoblotting for the appearance of 160 kDa mature glycosylated LDL receptor (labeling indicates the position of 160 kDa mature glycosylated and 120 kDa precursor forms of LDL receptor). Gamma correction was applied to the immunoblot images.

GRP94 = assay type: cell-based
Method: as §1
[…] The presence of KDEL tagged (SEQ ID NO: 3) luminal chaperone GRP94 inside and outside cells was measured.

Sec23a/Sec24a⋅Sec22b = biological target: T2, Sec23a/Sec24a⋅Sec22b (Homo sapiens, UniProt O95486); assay: Crystal soaking and X-ray difference Fourier maps; assay type: binding; conditions: crystals soaked at 1, 15 and 50 mM 4-PBA
T2 construct: His6 (TEV-cleavable) (N, cleaved yes); made in house; host or cells: High Five insect cells (Sec23a/Sec24a); E. coli (Sec22b)
Method: The Sec23a/Sec24a⋅Sec22b complex was crystallized as described in Mancias and Goldberg (2007) from a solution comprising 10% (w/v) PEG 4000, 500 mM Na acetate and 50 mM Tris-HCl pH 7.9. Crystals were transferred into a soaking buffer of 10% (w/v) PEG 4000, 600 mM NaCl, 50 mM Tris-HCl buffer, pH 7.9. Either 4-PBA (0-50 mM) or 5 mM ΦC signal peptide was added to the crystal containing solution, and the ligand soaking proceeded for five hours at 22° C. Crystals were then transferred to an equivalent ligand-containing buffer with additional 24% ethylene glycol cryo-protectant, and were flash frozen in liquid nitrogen. Crystals treated in this manner diffracted synchrotron X-rays to 2.5-2.8 Å resolution.
X-ray diffraction data were collected at 0.979 Å wavelength on beamline ID-24C or ID-24E of the Advanced Photon Source, Argonne National Laboratory. Data were processed with the program HKL2000 (Otwinowski and Minor (1997); see Tables 1 and 2). Structure refinement was carried out using Phenix (Adams et al. (2010)), initially by rigid-body improvement, followed by positional refinement, based on the published coordinates of Sec23a/Sec24a⋅Sec22b (PDB 2NUT; Mancias and Goldberg (2007)). Models for […] signal peptides or 4-PBA were not included in refinements prior to the creation of FIG. 1, to eliminate potential phase bias. […]

[2] = biological target: T3, COPII coat proteins (Sec23a/24d) (Homo sapiens, UniProt O94855); assay: In vitro COPII budding assay with permeabilized CHO cells; assay type: biochemical, H. sapiens; conditions: 10 mM 4-PBA
T3 construct: Sec23a/Sec24d (full-length protein) for COPII budding assays; made in house; host or cells: High Five insect cells (Sec23a/24d, Sec13a/31a); E. coli BL21(DE3) (Sar1a); added to digitonin-permeabilized T-Rex-CHO-K1 cells
Method: In vitro COPII budding reactions used permeabilized cells prepared from the T-Rex-CHO-K1 parent line and from the clone that expresses mutant LDL receptor. Permeabilization was carried out as described in Mancias and Goldberg (2008) with modifications. Two culture dishes (150 mm) of cells were prepared with cells at no greater than 60% confluence. Cells were washed with 20 ml PBS at 37° C. and then trypsinized with 2 ml of Trypsin-EDTA (0.05%, Gibco) for 1 min at 37° C.; 100 μl of Soybean Trypsin Inhibitor (2 mg/ml; Sigma) was added to each culture plate. Next, 5.5 ml ice-cold KHM buffer (110 mM KOAc, 20 mM Hepes pH 7.2, 2 mM magnesium acetate) was added per plate, and cells were transferred to a 15 ml Falcon tube and pelleted gently (250 g for 3 min at 4° C.). The supernatant was aspirated and the cells re-suspended in 6 ml ice-cold KHM buffer. To permeabilize the cells, 6 μl digitonin stock solution (40 mg/ml in dimethyl sulfoxide) was added, cells were mixed by inversion and incubated on ice for 5 minutes. To terminate permeabilization, cells were diluted to 14 ml with KHM buffer and immediately pelleted at 250 g for 3 min at 4° C. […] The protein concentration was measured using protein assay kit (Bio-Rad) with BSA as standard; routinely, the measurement is in the range 4-5 mg/ml. […]

T3 sequence (O94855 whole entry): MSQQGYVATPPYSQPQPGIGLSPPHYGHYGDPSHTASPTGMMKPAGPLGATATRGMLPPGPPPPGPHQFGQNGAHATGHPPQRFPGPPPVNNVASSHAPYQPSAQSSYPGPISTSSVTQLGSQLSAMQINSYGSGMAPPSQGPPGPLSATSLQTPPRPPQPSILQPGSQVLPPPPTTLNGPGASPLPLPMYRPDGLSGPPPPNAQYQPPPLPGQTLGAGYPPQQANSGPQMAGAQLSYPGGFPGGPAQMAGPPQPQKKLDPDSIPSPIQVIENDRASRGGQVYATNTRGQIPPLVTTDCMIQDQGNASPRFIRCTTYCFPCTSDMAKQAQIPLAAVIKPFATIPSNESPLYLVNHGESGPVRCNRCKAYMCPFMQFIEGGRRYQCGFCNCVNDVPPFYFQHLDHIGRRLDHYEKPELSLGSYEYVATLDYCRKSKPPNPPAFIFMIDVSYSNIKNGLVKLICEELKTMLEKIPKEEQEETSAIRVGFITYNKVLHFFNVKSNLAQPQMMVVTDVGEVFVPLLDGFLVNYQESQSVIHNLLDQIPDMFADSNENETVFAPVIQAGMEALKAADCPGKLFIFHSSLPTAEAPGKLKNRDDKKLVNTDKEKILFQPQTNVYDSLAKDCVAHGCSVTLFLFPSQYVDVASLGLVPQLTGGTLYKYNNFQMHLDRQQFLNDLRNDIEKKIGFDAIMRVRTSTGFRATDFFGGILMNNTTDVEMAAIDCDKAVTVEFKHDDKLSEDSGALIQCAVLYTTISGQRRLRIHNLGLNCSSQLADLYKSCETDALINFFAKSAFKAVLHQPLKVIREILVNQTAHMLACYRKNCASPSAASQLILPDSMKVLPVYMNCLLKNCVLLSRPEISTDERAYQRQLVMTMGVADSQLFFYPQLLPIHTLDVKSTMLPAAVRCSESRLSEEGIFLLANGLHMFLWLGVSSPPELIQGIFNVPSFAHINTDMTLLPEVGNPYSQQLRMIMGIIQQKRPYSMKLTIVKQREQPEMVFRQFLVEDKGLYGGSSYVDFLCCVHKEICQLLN
T3 sequence (Q15436 whole entry partner): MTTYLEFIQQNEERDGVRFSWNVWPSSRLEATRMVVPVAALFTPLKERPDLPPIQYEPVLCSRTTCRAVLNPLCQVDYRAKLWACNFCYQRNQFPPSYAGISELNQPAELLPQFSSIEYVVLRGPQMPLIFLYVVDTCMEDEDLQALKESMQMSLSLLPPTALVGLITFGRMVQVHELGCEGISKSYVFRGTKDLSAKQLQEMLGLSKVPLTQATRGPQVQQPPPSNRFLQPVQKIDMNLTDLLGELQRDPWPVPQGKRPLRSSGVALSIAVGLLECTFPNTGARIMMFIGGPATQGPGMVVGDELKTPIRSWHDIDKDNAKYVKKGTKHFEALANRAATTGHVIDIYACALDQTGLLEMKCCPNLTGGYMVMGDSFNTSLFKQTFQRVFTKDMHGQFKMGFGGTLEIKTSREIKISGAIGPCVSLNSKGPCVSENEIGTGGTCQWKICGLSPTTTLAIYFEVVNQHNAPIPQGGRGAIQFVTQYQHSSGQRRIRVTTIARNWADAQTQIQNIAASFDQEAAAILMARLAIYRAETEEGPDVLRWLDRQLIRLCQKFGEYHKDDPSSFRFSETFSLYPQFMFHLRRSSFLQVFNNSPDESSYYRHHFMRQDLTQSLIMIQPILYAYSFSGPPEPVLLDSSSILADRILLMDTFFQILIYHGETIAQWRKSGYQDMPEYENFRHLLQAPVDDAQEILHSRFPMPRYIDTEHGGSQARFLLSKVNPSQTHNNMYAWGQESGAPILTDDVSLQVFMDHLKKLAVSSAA
T2 sequence (Q15436 whole entry partner, one chain of several): as the sequence (Q15436 whole entry partner) above
T2 sequence (O75396 1-195 partner limits assumed, one chain of several): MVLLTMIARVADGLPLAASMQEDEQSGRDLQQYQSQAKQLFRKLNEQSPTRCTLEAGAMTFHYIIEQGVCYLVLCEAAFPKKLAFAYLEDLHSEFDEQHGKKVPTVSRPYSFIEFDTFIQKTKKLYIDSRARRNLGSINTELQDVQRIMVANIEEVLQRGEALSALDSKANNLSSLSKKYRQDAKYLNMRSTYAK

| SMILES | IC50 (human Sec24a) [mM] | EC50 [1] | also measured |
| --- | --- | --- | --- |
| O=C(O)CCc1ccccc1 [3-PPA, 3-phenylpropionate] | 4.11 ± 0.34 | 7.48 ± 0.68 mM |  |
| O=C(O)CCCc1ccccc1 [4-PBA, 4-phenylbutyrate] | 3.66 ± 0.22 | 6.37 mM and 6.4 mM | secretion of GRP94 from CHO cells (GRP94; 0-40 mM 4-PBA, 24 hours): dose-dependent; cell lysis (GRP94; 45 mM 4-PBA, highest concentration): cell lysis was detected; 4-PBA concentration of maximal GRP94 secretion (GRP94; 24 hours at 37° C., ER stressed and ER unstressed CHO cells): 20 mM; 4-PBA concentration at which unfolded protein response (UPR) was attenuated (GRP94; CHO cells expressing G544V-mutant LDL receptor, 24 hours at 37° C.): 10 to 20 mM; binding to the B site of Sec24a (Sec23a/Sec24a⋅Sec22b): clear evidence for binding; packaging of ER residents and mutant LDL receptor into COPII vesicles [2]: significant enrichment; reduction in the packaging rate of p24 proteins and ERGIC-53 [2]: 50%; restored trafficking of mutant LDL receptor (share of the receptor) ([1]; 10 mM 4-PBA applied to cells): ≤ 25% |
| O=C(O)CCCCc1ccccc1 [5-PVA, 5-phenylvalerate] | 0.99 ± 0.08 | 3.36 ± 0.42 mM |  |
| O=C(O)CCCc1ccc(O)cc1 [Hydroxy-PBA, 4-(4-hydroxyphenyl)butyrate] | 5.04 ± 0.69 | 10.6 ± 0.4 mM |  |
| O=C(O)CCc1ccc(O)cc1 [Hydroxy-PPA, 3-(4-hydroxyphenyl)propionate] | 9.22 ± 0.94 | 21.7 ± 1.03 mM |  |
| COc1ccc(CCCC(=O)O)cc1 [Methoxy-PBA, 4-(4-methoxyphenyl)butyrate] | 4.14 ± 0.7 | 8.63 ± 0.98 mM |  |
| Cc1ccc(CCCC(=O)O)cc1 [Tolyl-BA, 4-(4-tolyl)butyrate] | 1.7 ± 0.16 | 4.89 ± 0.24 mM |  |
